This note sets out measurements from ChEMBL document CHEMBL4052625, “The evaluation of 1,4-benzoquinones as inhibitors of human monoamine oxidase” (Eur J Med Chem, 2017).

For one assay, the species on record is Homo sapiens. In words: Selectivity index, ratio of IC50 for recombinant human MAO-B to IC50 for recombinant human MAO-A expressed in baculovirus infected BTI insect cell microsomes.
Assay [1] deals with T1, Amine oxidase [flavin-containing] A (Homo sapiens, UniProt P21397).
T1 sequence (P21397 whole entry): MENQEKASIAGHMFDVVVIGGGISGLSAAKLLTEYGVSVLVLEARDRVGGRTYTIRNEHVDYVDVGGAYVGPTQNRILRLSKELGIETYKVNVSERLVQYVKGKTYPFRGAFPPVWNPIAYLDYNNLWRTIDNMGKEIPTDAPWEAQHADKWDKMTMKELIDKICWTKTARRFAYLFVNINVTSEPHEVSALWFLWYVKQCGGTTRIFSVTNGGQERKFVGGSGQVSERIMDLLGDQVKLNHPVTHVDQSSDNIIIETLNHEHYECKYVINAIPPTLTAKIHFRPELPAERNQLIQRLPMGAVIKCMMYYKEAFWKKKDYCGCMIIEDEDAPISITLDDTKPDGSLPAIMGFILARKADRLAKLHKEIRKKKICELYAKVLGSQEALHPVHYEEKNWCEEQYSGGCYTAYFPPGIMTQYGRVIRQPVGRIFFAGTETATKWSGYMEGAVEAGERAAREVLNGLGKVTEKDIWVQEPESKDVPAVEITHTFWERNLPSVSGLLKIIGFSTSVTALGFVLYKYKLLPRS
Briefly: Competitive inhibition of human brain mitochondria MAO-A using kynuramine as substrate by Lineweaver-Burk analysis.

Assay [2] has as its target T2, Amine oxidase [flavin-containing] B (Homo sapiens, UniProt P27338).
T2 sequence (P27338 whole entry): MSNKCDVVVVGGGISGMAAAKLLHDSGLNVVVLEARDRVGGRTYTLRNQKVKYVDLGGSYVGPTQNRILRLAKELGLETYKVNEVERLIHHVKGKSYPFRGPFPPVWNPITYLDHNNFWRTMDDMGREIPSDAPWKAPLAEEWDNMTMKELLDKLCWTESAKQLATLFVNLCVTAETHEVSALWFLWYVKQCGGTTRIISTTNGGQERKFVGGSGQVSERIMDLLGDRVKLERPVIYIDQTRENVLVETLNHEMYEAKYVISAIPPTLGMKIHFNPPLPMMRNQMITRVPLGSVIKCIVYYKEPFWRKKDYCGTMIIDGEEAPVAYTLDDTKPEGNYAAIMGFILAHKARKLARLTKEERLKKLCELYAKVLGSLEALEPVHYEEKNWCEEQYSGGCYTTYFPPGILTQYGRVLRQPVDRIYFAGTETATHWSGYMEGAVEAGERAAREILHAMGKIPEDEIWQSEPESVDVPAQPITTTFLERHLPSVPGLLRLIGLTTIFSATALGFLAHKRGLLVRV
Briefly: Inhibition of recombinant human MAO-B expressed in baculovirus infected BTI insect cell microsomes using kynuramine as substrate after 20 mins by fluorescence spectroscopy.

The target in assay [3] is T1, Amine oxidase [flavin-containing] A. Briefly: Inhibition of recombinant human MAO-A expressed in baculovirus infected BTI insect cell microsomes using kynuramine as substrate after 20 mins by fluorescence spectroscopy.
The target of assay [4] is T2, Amine oxidase [flavin-containing] B. Briefly: Non-competitive inhibition of human brain mitochondria MAO-B using kynuramine as substrate by Lineweaver-Burk analysis.
Assay [5] deals with T1, Amine oxidase [flavin-containing] A. In words: Irreversible inhibition of recombinant human MAO-A expressed in baculovirus infected BTI insect cell microsomes assessed as residual activity using kynuramine as substrate at 13 uM preincubated for 15 mins with subsequent dialysis for 24 hrs followed by substrate addition measured after 20 mins by fluorescence spectroscopy relative to negative control. To be noted: read-out: INH.

In assay [6] the target is T2, Amine oxidase [flavin-containing] B. Briefly: Inhibition of human liver mitochondria MAO-B using 1-methyl-4-phenyl-1,2,3,6-tetrahydropyridine as substrate after 15 mins by spectrophotometric analysis.
The target in assay [7] is T1, Amine oxidase [flavin-containing] A. Briefly: Inhibition of human gastrointestinal mitochondria MAO-A using 1-methyl-4-(1-methylpyrrol-2-yl)-1,2,3,6-tetrahydropyridine as substrate after 30 mins by spectrophotometric analysis.

Each structure is given as a SMILES string. pIC50, pKi: −log10 of the molar value.

Broadly, the pKi is the negative decadic logarithm of the Ki, by convention in mol/L. Higher therefore signals a low Ki. A word on the pIC50: it is −log10 of the IC50, conventionally taken in molar units. For `O=C1C=CC(=O)C=C1` [BENZOQUINONE], the Ratio IC50 in the assay filed under Homo sapiens was determined as 2.1. Also, the negative-log Ki (pKi) is 5.02 in assay [1] and 4.69 in assay [4]. For the same molecule, the negative logarithm of the IC50 (pIC50) in assay [2] is 4.99; in assay [3] it was 5.32.

As to `O=C1C=CC(=O)C(C2CCCC2)=C1`, the Ratio IC50 in the assay listed under Homo sapiens is 3. The pIC50 is 4.75 in assay [2] and 5.23 in assay [3].

In the case of `O=C1C=CC(=O)C(Cc2ccccc2)=C1`, the Ratio IC50 in the assay listed under Homo sapiens was 4.3. The pIC50 in assay [2] was 4.63; in assay [3] it was 5.27.

Regarding `O=C1C=CC(=O)C(OCc2ccccc2)=C1`, in the assay filed under Homo sapiens, the Ratio IC50 came to 0.3. Also, the pIC50 in assay [2] was 5.43; in assay [3], 4.88.

`C#CCN(C)Cc1ccccc1` [PARGYLINE]: the activity at 13 µM in assay [5] fell in the range of 0.1 to 1.6%.

Take `CC1=C(C)C(=O)c2cc(C)ccc2C1=O`: the negative-log Ki (pKi) in assay [6] was 5.22; in assay [7], 5.52.

As for `O=C1C=CC(=O)C(c2ccccc2)=C1`, the Ratio IC50 in the assay listed under Homo sapiens worked out at 1.6. Besides, the pIC50 in assay [2] was 5.10; in assay [3], 5.30.
